In patent US9387204B2, “Fused bicyclic imidazoles” (BAYER INTELLECTUAL PROPERTY GmbH, priority 2007, dated 2016):
Read-outs that look alike come from different tables or passages of the source.

What was measured:
[1] = tested on: OvCAR3 cells; assay: Cellular proliferation/cytotoxicity assay (Alamar Blue), OvCAR3 cells; type: cell-based; settings: Homo sapiens, OVCAR-3, 72 h, Alamar Blue (Resazurin), read-out: Anti-proliferative/Cytotoxic activity (OvCAR3 cells)
Source text: Viabilities are expressed as % values.

[2] = tested on: A549 cells; assay: Cellular proliferation/cytotoxicity assay (Alamar Blue), A549 cells; settings: read-out: Anti-proliferative/Cytotoxic activity (A549 cells)
Method: (§1) The anti-proliferative activity of the compounds as described herein, is evaluated using the OvCAR3, HCT116 and A549 cell lines and the Alamar Blue (Resazurin) cell viability assay (O'Brien et al. Eur J Biochem 267, 5421-5426, 2000). Resazurin is reduced to the fluorescent resorufin by cellular dehydrogenase activity, correlating with viable, proliferating cells. Test compounds are dissolved as 10 mM solutions in DMSO and subsequently diluted. Cells like HCT116 or A549 cells were seeded into 96 well flat bottom plates at a density of 10000 cells/well (OvCAR3 cells), 1000 cells/well (HCT116 cells) or 2000 cells/well (A549 cells) in a volume of 200 μl/well. 24 hours after seeding, 1 μl each of the compound dilutions are added into each well of the 96 well plates. Each compound dilution is tested as at least as duplicates. Wells containing untreated control cells were filled with 200 μl DMEM (Dulbecco's Modified Eagle Medium) containing 0.5 vol % v:v DMSO. The cells are then incubated with the substances for 72 h at 37° C. in a humidified atmosphere containing 5 vol % CO2. To determine the viability of the cells, 20 μl of a Resazurin solution (90 mg/l) are added. After 4 h incubation at 37° C., the fluorescence is measured by extinction at ? =544 nm and an emission of ? =590 nm (Wallac Victor2; Perkin Elmer, USA). For the calculation of the cell viability, the emission value from untreated cells is set as 100% viability and the fluorescence intensity of treated cells are set in relation to the values of untreated cells. Viabilities are expressed as % values. The corresponding IC50 values of the compounds for cytotoxic activity are determined from the concentration-effect curves by means of non-linear regression. The analysis of the data is performed using a biostatistical program (Graph Pad Prism, USA).

[3] = tested on: A549 cells
Method: as §1

[4] = tested on: phospho-Akt (Ser473); assay: Cellular PI3K/Akt pathway assay (phospho-Akt ELISA); type: cell-based; settings: MCF7 cells, β-Heregulin stimulated, 48 h, phospho-Akt1 (Ser473) ELISA
Method: In order to study the cellular activity of the compounds according to the present invention, an Enzyme Linked Immunosorbent Assay (ELISA)-based assay has been used specific phospho-AKT. The assay is based on a Sandwich ELISA kit (PathScan™ Phospho-Akt1 (Ser473); Cell Signaling, USA; #7160).
The ELISA Kit detects endogenous levels of phosphorylated Akt protein. A phospho-Akt (Ser473) antibody (Cell Signaling, USA; #9271) has been coated onto the microwells. After incubation with cell lysates, the coated antibody captures the phosphorylated Akt protein. Following extensive washing, Akt1 monoclonal antibody (Cell Signaling, USA; #2967) is added to detect the captured phospho-Akt1 protein. HRP-linked anti-mouse antibody (HRP: horseradish peroxidase; Cell Signaling, USA; #7076) is then used to recognize the bound detection antibody. HRP substrate (=3,3′,5,5′-tetramethylbenzidine (TMB); Cell Signaling, USA; #7160) is added to develop colour. The magnitude of optical density for this developed color is proportional to the quantity of phosphorylated Akt protein. MCF7 cells (ATCC HTB-22) are seeded into 96 well fate bottom plates at a density of 10000 cells/well. 24 hours after seeding, the cells are serum starved using low-serum medium (IMEM media including 0.1% charcoal treated FCS (FCS: fetal calf serum)). […] To stimulate Akt phosphorylation, β-Heregulin (20 ng/ml β-HRG) is added in parallel to the compounds. Wells containing unstimulated control cells (no β-Heregulin stimulation) are incubated with or without the diluted compound. Wells containing untreated control cells (no compound) are filled with medium containing 0.5% v:v DMSO and are or are not stimulated with β-Heregulin.
Cells are harvested and lysed with brief sonification in 1× cell lysis buffer (20 mM Tris (pH7.5), 150 mM NaCl, 1 mM ethylene diaminetetraacetate (EDTA), 1 mM ethylene glycolbis(2-aminoethyl)-N,N,N′,N′-tetraacetic acid (EGTA), 1 vol % Triton X-100, 2.5 mM sodium pyrophosphate, 1 mM β-glycerolphosphate, 1 mM Na3VO4, 1 μg/ml leupeptin). The lysate is centrifuged for 10 min. at 4° C. and the supernatant is transferred to a new tube. 100 μl of sample diluent (0.1 vol % Tween-20, 0.1 vol % sodium azide in phosphate buffered saline (PBS)) are added to a microcentrifuge tube and 100 μl of cell lysate are transferred into the tube and vortexed. 100 μl of each diluted cell lysate are added to the appropriate ELISA well, and incubated overnight at 4° C. The plates are washed 4 times with 1× wash buffer (1 vol % tween-20, 0.33 vol % thymol, in PBS). Next 100 μl of detection antibody (Akt1 (2H10) monoclonal detection antibody; Cell Signaling, USA; #2967) are added to each well and incubation continued for 1 h at 37° C. The washing procedure is repeated between each step. 100 μl of secondary antibody (anti-mouse IgG HRP-linked antibody; Cell Signaling, USA; #7076) are added to each well and incubated for 30 min. at 37° C. Than, 100 μl of TMB substrate (0.05% 3,3′,5,5′ tetramethylbenzidine, 0.1% hydrogen peroxide, complex polypeptides in a buffered solution; Cell Signaling, USA; #7160) are added to each well and incubated for 30 min. at 25° C. Finally 100 μl of STOP solution (0.05 vol % α and β unsaturated carbonyl compound) are added to each well and the plate are shaked gently. The absorbance is measured at ? 450 nm (Wallac Victor2; Perkin Elmer, USA) within 30 min. after adding the STOP solution. The analysis of the data is performed using a statistical program (Excel; Microsoft, USA). Preferred compounds show an inhibitory activity towards Akt phosphorylation below 10 μM.

[5] = A549 cells, 72 h, Alamar Blue (Resazurin)

Work on `N#Cc1cccn2c(-c3ccccc3)c(-c3ccc(CN4CCC(c5n[nH]c(-c6ccccn6)n5)CC4)cc3)nc12` [Example 5, 3-phenyl-2-(4-{[4-(5-pyridin-2-yl-1,2,4-triazol-3-yl)piperidin-1-yl]methyl}phenyl)imidazo[1,2-a]pyridine-8-carbonitrile] yielded an IC50 [1] of less than 10 µM and an IC50 ([2]; Homo sapiens, A549, 72 h) of less than 10 µM.

Work on `N#Cc1cccn2c(-c3ccccc3)c(-c3ccc(CN4CCC(c5nnc(-c6cccs6)[nH]5)CC4)cc3)nc12` [Example 98, ′3-phenyl-2-[4-({4-[5-(2-thienyl)-4H-1,2,4-triazol-3-yl]piperidin-1-yl}methyl)phenyl]imidazo[1,2-a]pyridine-8-carbonitrile] yielded an IC50 [3] greater than 10 µM and an IC50 [4] of less than 1 µM.

Compound `Clc1ccc2nc(-c3ccc(CN4CCC(c5n[nH]c(-c6ccccn6)n5)CC4)cc3)c(-c3ccccc3)n2n1` [Example 31, 6-chloro-3-phenyl-2-(4-{[4-(5-pyridin-2-yl-1,2,4-triazol-3-yl)piperidin-1-yl]methyl}phenyl)imidazo[1,2-b]pyridazine] has an IC50 [1] of less than 10 µM and an IC50 ([2]; Homo sapiens, A549, 72 h) greater than 10 µM.

Work on `N=C(N)c1cccn2c(-c3ccccc3)c(-c3ccc(CN4CCC(c5n[nH]c(-c6ccccn6)n5)CC4)cc3)nc12` [Example 33, 3-phenyl-2-(4-{[4-(5-pyridin-2-yl-1,2,4-triazol-3-yl)piperidin-1-yl]methyl}phenyl)imidazo[1,2-a]pyridine-8-carboximidamide] yielded an IC50 [1] of less than 10 µM and an IC50 ([2]; Homo sapiens, A549, 72 h) of less than 10 µM.

`N#Cc1cccn2c(-c3ccccc3)c(-c3ccc(CN4CCC(c5nnc(-c6ccncc6)[nH]5)CC4)cc3)nc12` [Example 59, ′3-phenyl-2-(4-{[4-(5-pyridin-4-yl-4H-1,2,4-triazol-3-yl)piperidin-1-yl]methyl}phenyl)imidazo[1,2-a]pyridine-8-carbonitrile] was tested, and the IC50 [3] was less than 10 µM and the IC50 [4] was less than 1 µM.

`Cc1ccc(-c2nnc(C3CCN(Cc4ccc(-c5nc6c(C#N)cccn6c5-c5ccccc5)cc4)CC3)[nH]2)nc1` [Example 71, ′2-[4-({4-[5-(5-methylpyridin-2-yl)-4H-1,2,4-triazol-3-yl]piperidin-1-yl}methyl)phenyl]-3-phenylimidazo[1,2-a]pyridine-8-carbonitrile] showed an IC50 [3] of less than 10 µM and an IC50 [4] of less than 1 µM.

In the case of `N#Cc1cccn2c(-c3ccccc3)c(-c3ccc(CN4CCC(c5nnc(-c6ncccn6)[nH]5)CC4)cc3)nc12` [Example 77, 3-phenyl-2-[4-({4-[5-(pyrimidin-2-yl)-4H-1,2,4-triazol-3-yl]piperidin-1-yl}methyl)phenyl]imidazo[1,2-a]pyridine-8-carbonitrile], the IC50 ([2]; Homo sapiens, A549, 72 h) is reported as greater than 10 µM and the IC50 ([4]; Homo sapiens) is reported as less than 1 µM.

`Cc1cccc(-c2nnc(C3CCN(Cc4ccc(-c5nc6sccn6c5-c5ccccc5)cc4)CC3)[nH]2)n1` [Example 66, ′6-[4-({4-[5-(6-methylpyridin-2-yl)-4H-1,2,4-triazol-3-yl]piperidin-1-yl}methyl)phenyl]-5-phenylimidazo[2,1-b][1,3]thiazole] showed an IC50 [2, 5] of less than 10 µM and an IC50 [4] of less than 1 µM.

In the case of `c1ccc(-c2c(-c3ccc(CN4CCC(c5nnc(-c6ccc[nH]6)[nH]5)CC4)cc3)nc3ncccn23)cc1` [Example 106, ′3-phenyl-2-[4-({4-[5-(1H-pyrrol-2-yl)-4H-1,2,4-triazol-3-yl]piperidin-1-yl}methyl)phenyl]imidazo[1,2-a]pyrimidine], the IC50 [2, 5] is reported as greater than 10 µM and the IC50 [4] is reported as less than 1 µM.

For `Cc1cccc(-c2nnc(C3CCN(Cc4ccc(-c5nc6cc(C#N)ccn6c5-c5ccccc5)cc4)CC3)[nH]2)n1` [Example 61, 2-[4-({4-[5-(6-methylpyridin-2-yl)-4H-1,2,4-triazol-3-yl]piperidin-1-yl}methyl)phenyl]-3-phenylimidazo[1,2-a]pyridine-7-carbonitrile], the IC50 ([2]; Homo sapiens, A549, 72 h) was greater than 10 µM and the IC50 ([4]; Homo sapiens) was less than 1 µM.

`COc1ccn2c(-c3ccccc3)c(-c3ccc(CN4CCC(c5nnc(-c6cccc(C)n6)[nH]5)CC4)cc3)nc2c1` [Example 68, ′7-methoxy-2-[4-({4-[5-(6-methylpyridin-2-yl)-4H-1,2,4-triazol-3-yl]piperidin-1-yl}methyl)phenyl]-3-phenylimidazo[1,2-a]pyridine] was tested, and the IC50 [3] was less than 10 µM and the IC50 [4] was less than 1 µM.

`N#Cc1cccn2c(-c3ccccc3)c(-c3ccc(CN4CCC(c5nnc(-c6ccc[nH]6)[nH]5)CC4)cc3)nc12` [Example 105, ′3-phenyl-2-[4-({4-[5-(1H-pyrrol-2-yl)-4H-1,2,4-triazol-3-yl]piperidin-1-yl}methyl)phenyl]imidazo[1,2-a]pyridine-8-carbonitrile] gave an IC50 [3] of less than 10 µM and an IC50 [4] of less than 1 µM.

`c1ccc(-c2c(-c3ccc(CN4CCC(c5nnc(-c6ccco6)[nH]5)CC4)cc3)nc3sccn23)cc1` [Example 93, ′6-[4-({4-[5-(2-furyl)-4H-1,2,4-triazol-3-yl]piperidin-1-yl}methyl)phenyl]-5-phenylimidazo[2,1-b][1,3]thiazole] showed an IC50 [2, 5] of less than 10 µM and an IC50 [4] of less than 1 µM.

`NC(=O)c1cccn2c(-c3ccccc3)c(-c3ccc(CN4CCC(c5n[nH]c(-c6ccccn6)n5)CC4)cc3)nc12` [Example 40, 3-phenyl-2-(4-{[4-(5-pyridin-2-yl-1,2,4-triazol-3-yl)piperidin-1-yl]methyl}phenyl)imidazo[1,2-a]pyridine-8-carboxamide] showed an IC50 [1] of less than 10 µM and an IC50 ([2]; Homo sapiens, A549, 72 h) greater than 10 µM.

Work on `Cc1cccc(-c2nnc(C3CCN(Cc4ccc(-c5nc6c(C#N)cccn6c5-c5ccccc5)cc4)CC3)[nH]2)n1` [Example 62, 2-[4-({4-[5-(6-methylpyridin-2-yl)-4H-1,2,4-triazol-3-yl]piperidin-1-yl}methyl)phenyl]-3-phenylimidazo[1,2-a]pyridine-8-carbonitrile] yielded an IC50 ([2]; Homo sapiens, A549, 72 h) greater than 10 µM and an IC50 ([4]; Homo sapiens) of less than 1 µM.

For `N#Cc1cccn2c(-c3ccccc3)c(-c3ccc(CN4CCC(c5nnc(-c6ccccc6)[nH]5)CC4)cc3)nc12` [Example 117, 3-phenyl-2-(4-{[4-(5-phenyl-4H-1,2,4-triazol-3-yl)piperidin-1-yl]methyl}phenyl)imidazo[1,2-a]pyridine-8-carbonitrile], the IC50 ([2]; Homo sapiens, A549, 72 h) was greater than 10 µM and the IC50 ([4]; Homo sapiens) was less than 1 µM.
